Laboratory results taken from US11840686B2, “Modulation of prekallikrein (PKK) expression” (Ionis Pharmaceuticals, Inc., priority 2013, dated 2023).
Strand notation (5' to 3'): a small letter for the sugar, then the base; units joined by * are phosphorothioate-linked, units joined directly phosphodiester-linked; [ ] holds rarer units or linkages, { } end groups; capitals alone tell only the bases. e = 2'-O-(2-methoxyethyl) (MOE); [5mC] = 5-methylcytosine; d = 2'-deoxy (DNA)

How the values were obtained:
human PKK mRNA [1] = test: Dose-dependent antisense inhibition of human PKK in HepaRG cells, 0.12-10.00 uM (Example 4); assay type: cell-based; conditions: electroporation, ~16 h
Procedure: Cells were plated at a density of 20,000 cells per well and transfected using electroporation with 0.12 μM, 0.37 μM, 1.11 μM, 3.33 μM, and 10.00 μM concentrations of antisense oligonucleotide. After a treatment period of approximately 16 hours, RNA was isolated from the cells and PKK mRNA levels were measured by quantitative real-time PCR. Human PKK primer probe set RTS3454 was used to measure mRNA levels. PKK mRNA levels were adjusted according to total RNA content, as measured by RIBOGREEN®. The antisense oligonucleotides were tested in a series of experiments that had similar culture conditions. Results are presented as percent inhibition of PKK, relative to untreated control cells.
The half maximal inhibitory concentration (IC50) of each oligonucleotide is also presented.

human PKK mRNA [2] = test: Antisense inhibition of human PKK mRNA in HepaRG cells, 3,000 nM (Example 1); assay type: cell-based; conditions: relative to untreated control cells
How it was run: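 HepaRG cells, 20,000 per well, were electroporated with 3,000 nM 5-10-5 MOE gapmer (phosphorothioate, 5-methylcytosine). After about 24 h, PKK mRNA was measured by qRT-PCR with primer probe set RTS3454 and normalised to RIBOGREEN total RNA. Values are percent inhibition versus untreated cells.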

[3] = Table 2, PKK mRNA, HepaRG cells, 3,000 nM, electroporation, ~24 h
[4] = Table 3, HepaRG cells, electroporation with 3,000 nM antisense oligonucleotide, approx. 24 hours, PKK mRNA by RT-PCR (RTS3454)

Substance	percent inhibition of PKK at 0.12 μM (human PKK mRNA [1]; Table 33, 0.12 μM) [%]	percent inhibition of PKK at 0.37 μM (human PKK mRNA [1]; Table 33, 0.37 μM) [%]	percent inhibition of PKK at 1.11 μM (human PKK mRNA [1]; Table 33, 1.11 μM) [%]	percent inhibition of PKK at 3.33 μM (human PKK mRNA [1]; Table 33, 3.33 μM) [%]	percent inhibition of PKK at 10.00 μM (human PKK mRNA [1]; Table 33, 10.00 μM) [%]	IC50 (human PKK mRNA [1]; Table 33, PKK mRNA) [nM]	% inhibition (human PKK mRNA [2]; [3]) [%]	percent inhibition of PKK at 0.12 μM (human PKK mRNA [1]; Table 32, 0.12 μM) [%]	percent inhibition of PKK at 0.37 μM (human PKK mRNA [1]; Table 32, 0.37 μM) [%]	percent inhibition of PKK at 1.11 μM (human PKK mRNA [1]; Table 32, 1.11 μM) [%]	percent inhibition of PKK at 3.33 μM (human PKK mRNA [1]; Table 32, 3.33 μM) [%]	percent inhibition of PKK at 10.00 μM (human PKK mRNA [1]; Table 32, 10.00 μM) [%]	IC50 (human PKK mRNA [1]; Table 32, PKK mRNA) [nM]	% inhibition (human PKK mRNA [2]; [4]) [%]
531069 (e[5mC]*e[5mC]*eA*eG*eT*d[5mC]*d[5mC]*dA*dT*dG*dT*dA*d[5mC]*dT*d[5mC]*eA*eG*e[5mC]*eG*eA; antisense) [compound 531069]	19	39	48	76	83	900	56	–	–	–	–	–	–	–
531071 (e[5mC]*eT*eG*e[5mC]*eT*d[5mC]*dT*dG*dT*dG*dT*dT*dT*dT*d[5mC]*eT*e[5mC]*eT*eA*eA; antisense) [compound 531071]	23	37	56	83	83	700	73	–	–	–	–	–	–	–
531078 (eA*eG*e[5mC]*eA*eG*d[5mC]*dT*d[5mC]*dT*dG*dA*dG*dT*dG*d[5mC]*eA*e[5mC]*eT*eG*eT; antisense) [compound 531078]	–	–	–	–	–	–	77	10	27	54	69	92	1100	–
531110 (antisense eG*e[5mC]*e[5mC]*eT*eG*dT*dT*dT*dG*dG*dT*dG*dG*dT*d[5mC]*eT*e[5mC]*eT*eT*e[5mC]) [compound 531110]	14	29	49	76	85	1100	–	–	–	–	–	–	–	86
531121 (antisense eT*eT*eG*eG*eT*d[5mC]*dT*dA*d[5mC]*dA*dG*dA*dT*dT*d[5mC]*eA*eA*eT*eG*e[5mC]) [compound 531121]	0	13	47	69	79	1500	–	–	–	–	–	–	–	72
531123 (antisense eT*e[5mC]*e[5mC]*e[5mC]*eA*dG*d[5mC]*dT*d[5mC]*d[5mC]*dA*dG*dT*d[5mC]*dA*e[5mC]*e[5mC]*eA*e[5mC]*e[5mC]) [compound 531123]	14	43	51	71	64	900	–	–	–	–	–	–	–	74
